Results taken from article PMC9832378 (Drug Metabolism and Disposition, 2023).
Where two headings read alike, the source gives them in different places.

Assays:
[1] = urine of Caucasian smokers; ref Rangiah et al., 2011; cited from earlier work
P450 = settings: rat, in vivo; cited from earlier work
[2] = test system: COX formation in pooled HLMs; settings: 500 μM COT, vs control without inhibitor
CYP2C19 = CYP2C19 (Homo sapiens, UniProt P33261); settings: UM2C19/EM2C19 genotype groups compared with PM2C19 genotype group; ref Li-Wan-Po et al., 2010; cited from earlier work
CYP2B6 [3] = molecular target: T1, CYP2B6 (Homo sapiens, UniProt P20813); type: in vitro ADME; settings: microsomes of HEK293 cells overexpressing CYP2B6
T1 sequence (P20813 1-491): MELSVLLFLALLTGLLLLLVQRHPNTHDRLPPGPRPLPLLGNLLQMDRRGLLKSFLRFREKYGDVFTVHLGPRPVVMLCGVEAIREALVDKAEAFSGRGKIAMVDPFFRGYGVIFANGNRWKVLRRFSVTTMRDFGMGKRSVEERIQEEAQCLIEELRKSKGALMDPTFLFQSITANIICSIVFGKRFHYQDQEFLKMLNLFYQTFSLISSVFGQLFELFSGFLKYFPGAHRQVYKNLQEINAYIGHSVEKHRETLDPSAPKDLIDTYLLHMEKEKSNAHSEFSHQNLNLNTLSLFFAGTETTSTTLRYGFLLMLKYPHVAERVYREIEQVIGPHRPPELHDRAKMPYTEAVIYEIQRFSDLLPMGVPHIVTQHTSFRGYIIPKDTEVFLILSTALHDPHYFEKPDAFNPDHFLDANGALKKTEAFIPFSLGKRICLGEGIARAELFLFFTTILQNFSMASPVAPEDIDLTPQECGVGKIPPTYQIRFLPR

CYP2E1 = CYP2E1 (Homo sapiens, UniProt P05181); type: in vitro ADME; settings: microsomes of HEK293 cells overexpressing CYP2E1
CYP3A4 = CYP3A4 (Homo sapiens, UniProt P08684); type: in vitro ADME; settings: microsomes of HEK293 cells overexpressing CYP3A4
[4] = Kinetic analysis of COX formation in pooled HLMs; type: in vitro ADME, human; settings: pooled HLMs from 20 individuals
[5] = ref Jarvis et al., 1988; cited from earlier work
[6] = in smokers; no reference given; cited from earlier work
CYP2B6 [7] = settings: formation of COT from nicotine, ref Yamanaka et al., 2005; cited from earlier work
CYP2A6 = settings: formation of COT from nicotine, ref Yamanaka et al., 2005; cited from earlier work

Chain of CYP2C19 (P33261 whole entry): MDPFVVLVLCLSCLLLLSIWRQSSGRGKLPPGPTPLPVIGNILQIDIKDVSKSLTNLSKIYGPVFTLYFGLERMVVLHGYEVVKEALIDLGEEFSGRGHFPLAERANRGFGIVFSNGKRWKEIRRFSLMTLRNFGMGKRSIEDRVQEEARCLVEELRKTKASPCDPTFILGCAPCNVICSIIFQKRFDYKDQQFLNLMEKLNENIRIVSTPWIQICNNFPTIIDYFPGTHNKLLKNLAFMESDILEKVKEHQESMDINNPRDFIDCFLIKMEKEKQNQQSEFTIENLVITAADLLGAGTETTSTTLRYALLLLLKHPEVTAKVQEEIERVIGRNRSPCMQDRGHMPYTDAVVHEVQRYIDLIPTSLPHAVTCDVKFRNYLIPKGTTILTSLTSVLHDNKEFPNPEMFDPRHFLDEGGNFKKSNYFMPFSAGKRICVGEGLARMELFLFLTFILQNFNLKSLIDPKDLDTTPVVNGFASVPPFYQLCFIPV
Chain of CYP3A4 (P08684 whole entry): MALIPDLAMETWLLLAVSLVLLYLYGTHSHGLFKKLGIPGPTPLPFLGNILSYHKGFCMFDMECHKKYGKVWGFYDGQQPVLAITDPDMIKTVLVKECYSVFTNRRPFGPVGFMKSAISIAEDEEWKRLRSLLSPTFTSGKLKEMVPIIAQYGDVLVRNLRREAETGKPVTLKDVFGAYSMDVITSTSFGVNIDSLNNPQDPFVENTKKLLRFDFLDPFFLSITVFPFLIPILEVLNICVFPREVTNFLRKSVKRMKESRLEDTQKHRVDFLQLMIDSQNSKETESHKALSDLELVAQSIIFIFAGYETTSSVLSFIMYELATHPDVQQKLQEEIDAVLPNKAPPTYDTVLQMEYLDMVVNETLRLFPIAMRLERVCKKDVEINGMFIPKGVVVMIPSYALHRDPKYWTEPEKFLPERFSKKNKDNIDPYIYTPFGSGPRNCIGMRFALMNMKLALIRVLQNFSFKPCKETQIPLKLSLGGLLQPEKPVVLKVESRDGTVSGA
Chain of CYP2E1 (P05181 whole entry): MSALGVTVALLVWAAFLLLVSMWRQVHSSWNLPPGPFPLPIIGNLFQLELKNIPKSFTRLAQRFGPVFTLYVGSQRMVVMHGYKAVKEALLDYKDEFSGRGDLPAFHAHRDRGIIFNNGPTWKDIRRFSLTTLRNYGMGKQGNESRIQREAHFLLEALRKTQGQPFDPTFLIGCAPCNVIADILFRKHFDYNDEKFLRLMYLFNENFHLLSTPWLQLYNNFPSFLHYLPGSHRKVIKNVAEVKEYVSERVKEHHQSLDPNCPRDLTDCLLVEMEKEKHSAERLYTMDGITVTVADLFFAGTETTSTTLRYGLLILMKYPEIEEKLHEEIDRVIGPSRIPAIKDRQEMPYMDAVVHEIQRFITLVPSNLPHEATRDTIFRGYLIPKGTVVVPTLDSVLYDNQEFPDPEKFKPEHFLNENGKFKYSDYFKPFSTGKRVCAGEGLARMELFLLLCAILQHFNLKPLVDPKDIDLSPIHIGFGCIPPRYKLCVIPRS

## O=C1CCC(c2cccnc2)N1CO (stereo not shown) [N-(hydroxyl-methyl) norcotinine]
[1]
  average share of cotinine metabolites in urine: 4%

## CC(C)(C(=O)c1cccnc1)c1cccnc1 [metyrapone]
P450
  effect on phenobarbital-induced increase of COX production: negated

## COC(=O)[C@H](c1ccccc1Cl)N1CCc2sccc2C1 [clopidogrel]
[2]; 10 µM inhibitor
  decrease in COX formation: 21%
CYP2C19
  increased enzyme efficacy: 35%–40%

## N[C@@H]1C[C@H]1c1ccccc1 (racemic) [tranylcypromine]
[2]; 1 µM inhibitor
  decrease in COX formation: 15%

## COc1ccc2[nH]c([S+]([O-])Cc3ncc(C)c(OC)c3C)nc2c1 (stereo not shown) [omeprazole]
CYP2C19
  increased enzyme efficacy: 35%–40%

## CCC1(c2ccccc2)C(=O)NC(=O)NC1=O [phenobarbital]
P450
  increase of COX production: eightfold

## CN1C(=O)CC[C@H]1c1cccnc1 [cotinine]
CYP2B6 [3]
  Km at 30 min: 810 ± 24 µM
CYP2E1
  Km at 30 min: > 10000 µM
CYP3A4
  Km at 30 min: > 10000 µM
[4]; COX formation from cotinine
  Km: 550 ± 49 µM
[4]; COX formation
  Vmax: 587 ± 26 pmol/min/mg
[5]
  half-life of elimination from plasma: 10 to 27 h

## CN1CCC[C@H]1c1cccnc1 [nicotine]
[6]
  share of metabolism via formation of cotinine by CYP2A6: ~70%
CYP2B6 [7]
  Km: 550 µM
CYP2A6
  Km: 95 µM
